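All cell lines were grown in 96-well plates and treated with compound for 48 hours. Abbreviation: GI50, concentration required for 50% inhibition of growth. TGI: total growth inhibition.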
Columns and labels:
Assay in all cases: growth of human tumour cells (NCI), 48 h
[1] = tested on: COLO 205 colon
[2] = tested on: HCT-116 colon
[3] = tested on: SNB-75 CNS
[4] = tested on: M19-MEL melanoma
[5] = tested on: UACC-257 melanoma
[6] = tested on: NCI-H226 lung
[7] = tested on: SK-MEL-28 melanoma
[8] = tested on: A549 NSCLC
[9] = tested on: CCRF-CEM leukemia
[10] = tested on: OVCAR-8 ovarian
[11] = tested on: DMS 114 small cell lung
[12] = tested on: HCC-2998 colon
[13] = tested on: HOP-18 NSCLC
[14] = tested on: SW-620 colon
[15] = tested on: RPMI-8226 leukemia
[16] = tested on: NCI-H460 lung
[17] = tested on: OVCAR-3 ovarian
[18] = tested on: SNB-78 CNS
[19] = tested on: NCI-H23 lung
[20] = tested on: SK-OV-3 ovarian
[21] = tested on: EKVX NSCLC
[22] = tested on: KM12 colon
[23] = tested on: OVCAR-4 ovarian
[24] = tested on: SK-MEL-5 melanoma
[25] = tested on: MOLT-4 leukemia
[26] = tested on: SNB-19 CNS
[27] = tested on: IGROV1 ovarian
[28] = tested on: SF-539 CNS
[29] = tested on: DMS 273 small cell lung
[30] = tested on: LXFL 529 NSCLC
[31] = tested on: M14 melanoma
[32] = tested on: HCT-15 colon
[33] = tested on: 786-0 renal
[34] = tested on: U251 CNS
[35] = tested on: SK-MEL-2 melanoma
[36] = tested on: DLD-1 colon
[37] = tested on: KM20L2 colon
[38] = tested on: SF-295 CNS
[39] = tested on: SN12C renal
[40] = tested on: CAKI-1 renal
[41] = tested on: HL-60(TB) leukemia
[42] = tested on: SF-268 CNS
[43] = tested on: TK-10 renal
[44] = tested on: HOP-62 NSCLC
[45] = tested on: SR leukemia
[46] = tested on: NCI-H522 lung
[47] = tested on: HT29 colon
[48] = tested on: UO-31 renal
[49] = tested on: MALME-3M melanoma
[50] = tested on: UACC-62 melanoma
[51] = tested on: ACHN renal
[52] = tested on: K-562 leukemia
[53] = tested on: OVCAR-5 ovarian
[54] = tested on: A498 renal
[55] = tested on: RXF 393 renal
[56] = tested on: XF 498 CNS
[57] = tested on: LOX IMVI melanoma

O=Cc1ccc2c(c1-c1c(C=O)ccc3c1OCO3)OCO2
TGI [1]: > 100 µM
TGI [2]: > 100 µM
TGI [3]: > 100 µM
TGI [4]: > 100 µM
TGI [5]: > 100 µM
TGI [6]: > 100 µM
TGI [7]: > 100 µM
TGI [8]: > 100 µM
TGI [9]: > 100 µM
TGI [10]: > 100 µM
TGI [11]: > 100 µM
TGI [12]: > 100 µM
TGI [13]: > 100 µM
TGI [14]: > 100 µM
TGI [15]: > 100 µM
TGI [16]: > 100 µM
TGI [17]: > 100 µM
TGI [18]: > 100 µM
TGI [19]: > 100 µM
TGI [20]: > 100 µM
TGI [21]: > 100 µM
TGI [22]: > 100 µM
TGI [23]: > 100 µM
TGI [24]: > 100 µM
TGI [25]: > 100 µM
TGI [26]: > 100 µM
TGI [27]: > 100 µM
TGI [28]: > 100 µM
TGI [29]: > 100 µM
TGI [30]: > 100 µM
TGI [31]: > 100 µM
TGI [32]: > 100 µM
TGI [33]: > 100 µM
TGI [34]: > 100 µM
TGI [35]: > 100 µM
TGI [36]: > 100 µM
TGI [37]: > 100 µM
TGI [38]: > 100 µM
TGI [39]: > 100 µM
TGI [40]: > 100 µM
TGI [41]: > 100 µM
TGI [42]: > 100 µM
TGI [43]: > 100 µM
TGI [44]: > 100 µM
TGI [45]: > 100 µM
TGI [46]: > 100 µM
TGI [47]: > 100 µM
TGI [48]: > 100 µM
TGI [49]: > 100 µM
TGI [50]: > 100 µM
TGI [51]: > 100 µM
TGI [52]: > 100 µM
TGI [53]: > 100 µM
TGI [54]: > 100 µM

COc1c[c]([Hg][O]C(C)=O)c(OC)c(NC(=O)CC(C)=O)[c]1[Hg][O]C(C)=O
GI50 [1]: 2.37 µM
GI50 [2]: 13.1 µM
TGI [2]: 34.8 µM
GI50 [3]: 14 µM
TGI [3]: 28 µM
GI50 [4]: 8.85 µM
TGI [4]: 22 µM
GI50 [5]: 2.73 µM
TGI [5]: 7.46 µM
GI50 [6]: 19.5 µM
TGI [6]: 42.9 µM
GI50 [7]: 1.83 µM
TGI [7]: 3.61 µM
GI50 [8]: 26 µM
TGI [8]: 45.9 µM
GI50 [9]: 1.75 µM
TGI [9]: 5.43 µM
GI50 [10]: 6.71 µM
TGI [10]: > 19.9 µM
GI50 [12]: 15.8 µM
TGI [12]: 30.1 µM
GI50 [13]: 1.96 µM
TGI [13]: 4.62 µM
GI50 [55]: 2.86 µM
TGI [55]: 7.3 µM
GI50 [15]: 4.22 µM
TGI [15]: 33.4 µM
GI50 [16]: 16.3 µM
TGI [16]: 39 µM
TGI [17]: > 21.1 µM
GI50 [19]: 11.6 µM
TGI [19]: 17.9 µM
GI50 [20]: 18.6 µM
TGI [20]: 32.7 µM
GI50 [21]: 19.9 µM
TGI [21]: 36.3 µM
GI50 [56]: 1.65 µM
TGI [56]: 3.2 µM
GI50 [22]: > 43.2 µM
TGI [22]: > 62.1 µM
GI50 [23]: 15.9 µM
TGI [23]: 30 µM
GI50 [24]: 2.75 µM
TGI [24]: 11.2 µM
GI50 [25]: 2.32 µM
TGI [25]: 6.85 µM
GI50 [26]: 5.56 µM
TGI [26]: 12.3 µM
GI50 [27]: 11 µM
TGI [27]: 23.9 µM
GI50 [28]: 12.6 µM
TGI [28]: 28.1 µM
GI50 [29]: 13.6 µM
TGI [29]: 36.7 µM
GI50 [30]: 1.42 µM
TGI [30]: 2.85 µM
GI50 [31]: 2.11 µM
TGI [31]: 4.56 µM
GI50 [32]: 3.11 µM
GI50 [33]: 2.48 µM
TGI [33]: 7.71 µM
GI50 [34]: 12.6 µM
TGI [34]: 27.8 µM
GI50 [35]: 13.8 µM
TGI [35]: 28.2 µM
GI50 [36]: 2.25 µM
TGI [36]: 5.18 µM
GI50 [37]: 14.2 µM
TGI [37]: 30.9 µM
GI50 [38]: > 41.7 µM
TGI [38]: > 55.8 µM
GI50 [39]: 13.7 µM
TGI [39]: 27.8 µM
GI50 [40]: 2.26 µM
TGI [40]: 4.26 µM
GI50 [41]: 2.41 µM
TGI [41]: 5.35 µM
GI50 [42]: 13.6 µM
TGI [42]: 18.9 µM
GI50 [43]: 4.46 µM
TGI [43]: 14 µM
GI50 [44]: 20 µM
TGI [44]: 34.4 µM
GI50 [45]: 2.59 µM
TGI [45]: > 100 µM
TGI [46]: 0.154 µM
GI50 [47]: 4.21 µM
TGI [47]: 19.6 µM
GI50 [48]: 19.2 µM
TGI [48]: 33.3 µM
GI50 [49]: 1.53 µM
TGI [49]: 3 µM
GI50 [50]: 11.4 µM
TGI [50]: 24.1 µM
GI50 [51]: 3.01 µM
TGI [51]: 8.53 µM
GI50 [52]: 1.48 µM
TGI [52]: 5.53 µM
GI50 [53]: 19.3 µM
TGI [53]: 33.7 µM
GI50 [54]: 8.03 µM
TGI [54]: 22.6 µM

Cc1ccc(C)c(N=C2NC(=O)C(CC(=O)Nc3ccc(Cl)cc3Cl)S2)c1 (stereo not given)
TGI [1]: > 100 µM
TGI [3]: > 100 µM
TGI [4]: > 100 µM
TGI [5]: > 100 µM
TGI [6]: > 100 µM
TGI [7]: > 100 µM
TGI [8]: > 100 µM
TGI [9]: > 100 µM
TGI [10]: > 100 µM
TGI [11]: > 100 µM
TGI [12]: > 100 µM
TGI [13]: > 100 µM
TGI [14]: > 100 µM
TGI [55]: > 100 µM
TGI [15]: > 100 µM
TGI [16]: > 100 µM
TGI [17]: > 100 µM
TGI [19]: > 100 µM
TGI [20]: > 100 µM
TGI [21]: > 100 µM
TGI [56]: 90.5 µM
TGI [22]: > 100 µM
TGI [23]: > 100 µM
TGI [24]: > 100 µM
TGI [25]: > 100 µM
TGI [26]: > 100 µM
TGI [27]: > 100 µM
TGI [28]: > 100 µM
TGI [29]: > 100 µM
TGI [30]: > 100 µM
TGI [31]: > 100 µM
TGI [32]: > 100 µM
TGI [33]: > 100 µM
TGI [34]: > 100 µM
TGI [57]: > 100 µM
TGI [35]: > 100 µM
TGI [36]: > 100 µM
TGI [37]: > 100 µM
TGI [38]: > 100 µM
TGI [39]: > 100 µM
TGI [40]: > 100 µM
TGI [41]: > 100 µM
TGI [42]: > 100 µM
TGI [43]: > 100 µM
TGI [44]: > 100 µM
TGI [46]: 56.5 µM
TGI [47]: > 100 µM
TGI [48]: > 100 µM
TGI [49]: > 100 µM
TGI [50]: > 100 µM
TGI [51]: > 100 µM
TGI [52]: > 100 µM
TGI [53]: > 100 µM
TGI [54]: 96.2 µM

Reference: PubChem BioAssay (NCI)
